“And” between values parts separate entries of the source, which are not always exact repeats. Equal entries are not always repeated. Where two headings read alike, the source gives them in different places.
Tests used:
NQO1 mRNA = assay: RT-PCR, NQO1 mRNA in THLE2 cells; assay type: cell-based, human; conditions: for NQO1 mRNA level relative to control: THLE2, 10 nM, replicates
Method: Supplementary Figure 23. DI‐1859 increases the mRNA level of NRF2 ta rge te d genes NQO1 and
HO‐1. THLE2 cells we re treated with DI‐1859 at 10 nM fo r 4, 8 and 24 h. Tr e a t e d cells were
harvested and the mRNA level of HO‐1 and NQO1 we re exa m i n e d by RT‐PCR assay. The probes
Scientific (Ann Arbor, MI). Data are presented as mean values with n = 2 independent biological […]

[1] = tested on: APAP-induced liver injury; assay: APAP-induced liver injury: H&E histology of liver; assay type: in vivo, mouse
Method: The in vivo studies were performed under animal protocols (PRO00007499) and (PRO00006638) approved by the Institutional Animal Care & Use Committee of the University of Michigan, in accordance with the recommendations in the Guide for the Care and Use of Laboratory Animals of the National Institutes of Health. C57BL/6 WT mice (~8 weeks, male, normal chow) were purchased from the Jackson Laboratory and randomly divided into eight groups (8–9 mice per group) treated (IP) as follows: phosphate-buffered saline vehicle once per day for 3 days (G1), APAP alone a single dose at 400 mg/kg on day 1 (G2), DI-1859 alone 25 mg/kg once per day for 3 days (G3), DI-1859 alone 50 mg/kg once per day for 3 days (G4), pretreatment (1 day before the APAP administration) with DI-1859 at 25 mg/kg once per day for 3 days followed with APAP at 400 mg/kg on day (G5), pretreatment (1 day before the APAP administration) with DI-1859 at 50 mg/kg once per day for 3 days followed with APAP at 400 mg/kg on day (G6), APAP a single dose at 400 mg/kg (3 h before the first DI-1859 administration) followed with DI-1859 at 25 mg/Kg once per day for 3 days (G7), and APAP a single dose at 400 mg/kg (3 h before the first DI-1859 administration) followed with DI-1859 at 50 mg/Kg once per day for 3 days (G8).
To induce acute liver injury, animals received PBS or APAP (400 mg/kg, sigma, A7085) through I.P. injection at 12 p.m. and were sacrificed 48 h afterward. To examine the protective effect of DI-1859 (groups 5 and 6), animals were I.P. injected with compound for 3 consecutive days (9 a.m. on each day, starting 1 day before APAP administration). To examine the restorative effect of DI-1859 (groups 7 and 8), animals were I.P. injected with compound 3 h after APAP administration followed by two additional treatments (9 a.m. on the next 2 days). Body weight and blood glucose level measurement, along with blood sample collection, were performed at 12 p.m. on each day.
Liver paraffin sections were stained with H&E.

MDA-MB-231 cells = assay: Cell viability assay (WST-8), MDA-MB-231; assay type: cell-based, human; conditions: for cell viability relative to control: replicates
How it was run: (§1)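 Cells (2000–3000 per well) were treated with serial dilutions of DCN1 inhibitors for 3 days, then incubated 1–3 h with WST-8 and absorbance read at 450 nm. Growth inhibition was sample-to-control absorbance ratio, with EC50 from fitted curves.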

HCT116 cells = assay: Cell viability assay (WST-8), HCT116; assay type: cell-based, human; conditions: Homo sapiens, HCT-116; 72 h; cell line assigned from panel order; read-out: EC50, cell growth inhibition
How it was run: as §1

[2] = Cell viability assay (WST-8), KYSE70; assay type: cell-based, human; conditions: human, KYSE70 cells, replicates, read-out: cell viability relative to control
Method: (§2) Cell viability assay was performed as previously described. The effect of DCN1 inhibitors on cell growth was evaluated by a WST-8 [2-(2-methoxy-4-nitrophenyl)-3-(4-nitrophenyl)-5-(2,4-disulfophenyl)-2H-tetrazolium, monosodium salt assay (Dojindo Molecular Technologies, Inc). Cells (2000–3000 cells in each well) were seeded in 96-well tissue culture plates in medium (100 μL) and treated with serial dilution of DCN1 inhibitors for 3 days. At the end of incubation, WST-8 dye (20 μL) was added to each well and incubated for 1–3 h, then the absorbance was measured in a microplate reader (Molecular Devices) at 450 nm. Cell growth inhibition was evaluated as the ratio of the absorbance of the sample to that of the control. The values were inserted into Prism software, and the curves and the EC50 values were produced by Prism software.

KYSE70 cells = assay: Cell viability assay (WST-8), KYSE70; assay type: cell-based, human; conditions: for cell viability relative to control: replicates
Method: as §2

[3] = target: T1, cellular DCN1 protein in U2OS cells (Homo sapiens, UniProt Q96GG9); assay: Cellular thermal shift assay (CETSA), DCN1; assay type: cell-based; conditions: 1 h, 53 °C
T1 construct: endogenous in cells; host or cells: U2OS
Method: CETSA was performed as previously described. The U2OS cells (5 × 10^5 per sample) were treated with compounds or with DMSO for 1 h, washed with PBS for three times, and dissolved in 50 µL PBS supplemented with protease inhibitor, followed by heating at 53 °C in a Mastercycler gradient (Eppendorf, New York, USA). Treated cells were then subjected to snap-freezing in liquid nitrogen and thawed on ice for three cycles. The protein level of DCN1 and DCN3 in equal amount of the supernatant was examined by western blot methods. GAPDH was used as a control. Results are representative of three independent experiments.

DCN1 = DCN1 (Homo sapiens, UniProt Q96GG9); assay: BLI assay; assay type: binding; set-up: biotin (chemical labelling, EZ-Link long-chain reagent)
Method: BLI experiments were performed using an OctetRED96 instrument from PALL/ForteBio, as previously described. All assays were run at 30 °C using PBS (pH 7.4) as the assay buffer, in which 0.1% BSA, 0.01% Tween-20, and 2% DMSO were added. DCN1 protein was biotinylated using the Thermo EZ-Link long-chain biotinylation reagent. Biotinylated DCN1 protein was tethered on super streptavidin biosensors (ForteBio) by dipping sensors into 10 µg/mL protein solutions. To eliminate loose nonspecific bound protein and establish a stable base line, sensors with proteins were moved and dipped into wells with pure assay buffer and equilibrated in the buffer for 10 min. Association–dissociation cycles were performed by moving and dipping sensors into compound solution wells then into pure buffer wells. DMSO-only reference was included in all assays.

T1 sequence (Q96GG9 whole entry): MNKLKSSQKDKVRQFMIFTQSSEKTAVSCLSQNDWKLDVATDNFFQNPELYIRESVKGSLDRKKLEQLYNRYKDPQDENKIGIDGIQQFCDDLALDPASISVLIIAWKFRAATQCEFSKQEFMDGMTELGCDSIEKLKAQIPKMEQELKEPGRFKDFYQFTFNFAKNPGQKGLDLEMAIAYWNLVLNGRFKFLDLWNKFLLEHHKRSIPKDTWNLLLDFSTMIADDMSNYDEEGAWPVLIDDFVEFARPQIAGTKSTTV
Chain of DCN1 (Q96GG9 whole entry): as above

SMILES: C=C(CN(C)C)C(=O)NC[C@@H](NC(=O)[C@H](Cc1nc2ccc(C(C)C)cc2s1)NC(=O)CC)C1CCCCC1 [DI-1859]
- NQO1 mRNA level relative to control (NQO1 mRNA; 4 h (time from row order and b199)): 2.3 and 2
- NQO1 mRNA level relative to control (NQO1 mRNA; 8 h (time from row order and b199)): 2.7 and 2.6
- NQO1 mRNA level relative to control (NQO1 mRNA; 24 h (time from row order and b199)): 19.3 and 16
- increase of NQO1 mRNA level (NQO1 mRNA; THLE2 liver cells, qRT-PCR): 17 folds
- liver tissue damage by the compound alone ([1]; 25 and 50 mg/kg qD for 3 days (G3, G4), ALT and histology): caused no liver tissue damage
- effect on APAP-induced liver tissue damage (histology) ([1]; prevention setting, 25 mg/kg): largely abolished tissue distortion and greatly reduced acetaminophen-induced tissue damage
- effect on APAP-induced liver tissue damage (histology) ([1]; prevention setting, 50 mg/kg): near completely prevented APAP-induced liver tissue damage
- effect on APAP-induced liver tissue damage (histology) ([1]; treatment setting, 25 and 50 mg/kg): significantly reduced the liver damage induced by APAP

SMILES: C=C(CN1CCOCC1)C(=O)NC[C@@H](NC(=O)[C@H](Cc1nc2ccc(C(C)C)cc2s1)NC(=O)CC)C1CCCCC1 [DI-1548]
- EC50 (MDA-MB-231 cells; Homo sapiens, MDA-MB-231, 72 h, cell line assigned from panel order, read-out: EC50, cell growth inhibition): > 1000 nM
- cell viability relative to control (MDA-MB-231 cells; conc 10, 72 h): 103.908 and 110.805 and 88.1609
- cell viability relative to control (MDA-MB-231 cells; conc 30, 72 h): 104.754 and 102.705
- cell viability relative to control (MDA-MB-231 cells; conc 100, 72 h): 102.874 and 99.4253
- cell viability relative to control (MDA-MB-231 cells; conc 300, 72 h): 87.0115 and 106.207 and 84.7126
- cell viability relative to control (MDA-MB-231 cells; conc 1000, 72 h): 77.0115 and 107.241 and 112.414
- EC50 (HCT116 cells): > 1000 nM
- viability at 72 h ([2]; conc 10, 72 h): 99.4%
- viability at 72 h ([2]; conc 30, 72 h): 104%
- viability at 72 h ([2]; conc 100, 72 h): 99.4%
- viability at 72 h ([2]; conc 300, 72 h): 94.1%
- EC50 (KYSE70 cells; Homo sapiens, KYSE-70, 72 h, cell line assigned from panel order, read-out: EC50, cell growth inhibition): > 1000 nM
- cell viability relative to control (KYSE70 cells; conc 10, 72 h): 103.349 and 104.463
- cell viability relative to control (KYSE70 cells; conc 30, 72 h): 98.066 and 96.6942
- cell viability relative to control (KYSE70 cells; conc 100, 72 h): 94.5283 and 108.512
- cell viability relative to control (KYSE70 cells; conc 300, 72 h): 88.5377 and 82.0661
- cell viability relative to control (KYSE70 cells; conc 1000, 72 h): 64.6226 and 79.9057 and 54.5868
- concentration as low as which the thermal stability of cellular DCN1 protein is enhanced [3]: ≤ 0.3 nM
- times more potent than DI-591 and DI-1548DD in enhancing the thermal stability of cellular DCN1 protein [3]: > 1000 times
- dissociation phase of the complex with DCN1 (DCN1): no dissociation phase
- concentration at which the BLI signal reaches near its maximum (DCN1; 1.56 to 100 nM tested): 25 nM

Source: PMC8113459, “Selective inhibition of cullin 3 neddylation through covalent targeting DCN1 protects mice from acetaminophen-induced liver toxicity” (Nature Communications, 2021)
